Assay results: PubChem BioAssay AID248 (DTP/NCI, 2004)
Several values for one entry are separate records, joined by “and”; a condition that tells them apart may be missing. Identical values can stand only once. Inconclusive results and toxic doses are left out. Rule as the data show it: active = T/C of 150% or more; inactive = T/C below 125%.

Test system: L1210 leukemia ip in BDF1 mice, survival T/C
Assay: NCI In Vivo Anticancer Drug Screen. Data for tumor model L1210 Leukemia (intraperitoneal) in B6D2F1 (BDF1) mice
Conditions: endpoint: mean survival time, higher = longer survival
Method in brief: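 Tumor cells were implanted, animals were treated, and survival was followed. The result divides the treated measurement by the vehicle-control measurement.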

[1] = dose: 100.0 mg/kg/injection, schedule: Q04DX003 (ip), vehicle: saline with Tween-80
[2] = dose: 200.0 mg/kg/injection, schedule: Q04DX003 (ip), vehicle: saline with Tween-80
[3] = dose: 100.0 mg/kg/injection, schedule: Q04DX003 (ip), vehicle: gum acacia
[4] = dose: 200.0 mg/kg/injection, schedule: Q04DX003 (ip), vehicle: gum acacia
[5] = dose: 400.0 mg/kg/injection, schedule: Q04DX003 (ip), vehicle: gum acacia
[6] = dose: 100.0 mg/kg/injection, schedule: Q01DX009 (ip), vehicle: saline with Tween-80
[7] = dose: 200.0 mg/kg/injection, schedule: Q01DX009 (ip), vehicle: saline with Tween-80
[8] = dose: 50.0 mg/kg/injection, schedule: Q01DX001 (ip), vehicle: saline
[9] = dose: 100.0 mg/kg/injection, schedule: Q01DX001 (ip), vehicle: saline
[10] = dose: 200.0 mg/kg/injection, schedule: Q01DX001 (ip), vehicle: saline
[11] = dose: 400.0 mg/kg/injection, schedule: Q01DX001 (ip), vehicle: saline

Measured: T/C

CCCCSc1ncc(C)c(N(C)C)n1
inactive: dose: 25.0 mg/kg/injection, schedule: Q01DX Z (ip), vehicle: methylcellulose (MC) 92 % of control | dose: 50.0 mg/kg/injection, schedule: Q01DX Z (ip), vehicle: methylcellulose (MC) 89 % of control

COC(=O)C(CCCCN=Cc1ccccc1O)N=Cc1ccccc1O.[Ni] (stereo unspecified)
inactive: [1] 87 % of control | [2] 88 % of control

CC(=O)OC1CCC2(C)C3CCC4(C)C(c5ccc(=O)oc5)CC5OC54C3CCC2(O)C1 (stereo unspecified)
inactive: dose: 1.0 mg/kg/injection, schedule: Q01DX001 (sc), vehicle: steriod suspending solution 98 % of control | dose: 2.0 mg/kg/injection, schedule: Q01DX001 (sc), vehicle: steriod suspending solution 96 % of control | dose: 4.0 mg/kg/injection, schedule: Q01DX001 (sc), vehicle: steriod suspending solution 96 % of control | dose: 8.0 mg/kg/injection, schedule: Q01DX001 (sc), vehicle: steriod suspending solution 107 % of control | dose: 12.0 mg/kg/injection, schedule: Q01DX001 (sc), vehicle: steriod suspending solution 113 % of control | dose: 16.0 mg/kg/injection, schedule: Q01DX001 (sc), vehicle: steriod suspending solution 107 % of control | dose: 32.0 mg/kg/injection, schedule: Q01DX001 (sc), vehicle: steriod suspending solution 114 % of control | dose: 64.0 mg/kg/injection, schedule: Q01DX001 (sc), vehicle: steriod suspending solution 103 % of control | dose: 128.0 mg/kg/injection, schedule: Q01DX001 (sc), vehicle: steriod suspending solution 115 % of control

O=C(Nc1cccc(C(F)(F)F)c1)c1ccc(Cl)c(Cl)c1
inactive: dose: 100.0 mg/kg/injection, schedule: Q01DX009 (ip), vehicle: gum acacia 108 % of control | [3] 100 % of control | [4] 100 % of control | dose: 400.0 mg/kg/injection, schedule: Q01DX009 (ip), vehicle: gum acacia 96 % of control | [5] 95 % of control

CCCCC#C/C=C/CCCC
inactive: dose: 50.0 mg/kg/injection, schedule: Q01DX009 (ip), vehicle: saline with Tween-80 95 % of control | [6] 100 % of control | [7] 100 % of control

CC12CCC(O)C(CC1)C2 (stereo unspecified)
inactive: [1] 107 % of control | [2] 88 % of control | dose: 400.0 mg/kg/injection, schedule: Q04DX003 (ip), vehicle: saline with Tween-80 95 % of control

C=CCN(CC=C)C(=S)[S-].C=CCN(CC=C)C(=S)[S-].[Zn]
inactive: dose: 1.25 mg/kg/injection, schedule: Q01DX009 (ip), vehicle: saline 101 % of control | dose: 2.5 mg/kg/injection, schedule: Q01DX009 (ip), vehicle: saline 93 % of control | dose: 5.0 mg/kg/injection, schedule: Q01DX009 (ip), vehicle: saline 87 % of control | dose: 5.0 mg/kg/injection, schedule: Q04DX003 (ip), vehicle: saline 90 % of control | dose: 10.0 mg/kg/injection, schedule: Q01DX001 (ip), vehicle: saline 86 % of control | dose: 10.0 mg/kg/injection, schedule: Q04DX003 (ip), vehicle: saline 92 % of control | dose: 20.0 mg/kg/injection, schedule: Q01DX001 (ip), vehicle: saline 95 % of control

O=c1cc(Nc2cccc3cc4ccccc4cc23)[nH]c(=O)[nH]1
inactive: dose: 38.0 mg/kg/injection, schedule: Q01DX001 (ip), vehicle: Klucel (hydroxypropylcellulose) (HPC) 93 % of control | dose: 75.0 mg/kg/injection, schedule: Q01DX001 (ip), vehicle: Klucel (hydroxypropylcellulose) (HPC) 93 % of control | dose: 150.0 mg/kg/injection, schedule: Q01DX001 (ip), vehicle: Klucel (hydroxypropylcellulose) (HPC) 90 % of control

CN(C)c1ccc(/C=N\NC(=O)CCCC(=O)N/N=C/c2ccc(N(C)C)cc2)cc1
inactive: [8] 93 % of control | [9] 96 % of control | [10] 98 % of control | [11] 93 % of control

CC(C)=CC[P+](c1ccccc1)(c1ccccc1)c1ccccc1
inactive: dose: 3.13 mg/kg/injection, schedule: Q01DX009 (ip), vehicle: saline 111 % of control | dose: 6.25 mg/kg/injection, schedule: Q01DX009 (ip), vehicle: saline 106 % of control | dose: 12.5 mg/kg/injection, schedule: Q01DX009 (ip), vehicle: saline 100 % of control and 106 % of control | dose: 25.0 mg/kg/injection, schedule: Q01DX001 (ip), vehicle: saline 102 % of control | dose: 25.0 mg/kg/injection, schedule: Q01DX009 (ip), vehicle: saline 98 % of control | [8] 90 % of control | dose: 50.0 mg/kg/injection, schedule: Q01DX009 (ip), vehicle: saline 98 % of control and 90 % of control

N#CCc1ccc2c(c1)[nH]c1ccccc12
inactive: dose: 100.0 mg/kg/injection, schedule: Q04DX003 (ip), vehicle: Klucel (hydroxypropylcellulose) (HPC) 100 % of control | dose: 200.0 mg/kg/injection, schedule: Q04DX003 (ip), vehicle: Klucel (hydroxypropylcellulose) (HPC) 100 % of control | dose: 400.0 mg/kg/injection, schedule: Q04DX003 (ip), vehicle: Klucel (hydroxypropylcellulose) (HPC) 105 % of control

O=C(O)c1cccc([N+](=O)[O-])c1C(=O)O
inactive: [6] 95 % of control | dose: 100.0 mg/kg/injection, schedule: Q04DX002 (ip), vehicle: Klucel (hydroxypropylcellulose) (HPC) 98 % of control | [7] 95 % of control | dose: 200.0 mg/kg/injection, schedule: Q04DX002 (ip), vehicle: Klucel (hydroxypropylcellulose) (HPC) 88 % of control | dose: 400.0 mg/kg/injection, schedule: Q04DX002 (ip), vehicle: Klucel (hydroxypropylcellulose) (HPC) 88 % of control

O=C(O)C1CCC(C(=O)c2ccc([N+](=O)[O-])cc2)CC1 (stereo unspecified)
inactive: [3] 97 % of control | [4] 93 % of control | [5] 88 % of control

CN(C(=O)c1cc([N+](=O)[O-])ccc1O)c1ccc([N+](=O)[O-])cc1
inactive: [9] 97 % of control | [10] 95 % of control | [11] 97 % of control

Cc1nc2ccccc2c2ccccc12
inactive: dose: 50.0 mg/kg/injection, schedule: Q01DX009 (ip), vehicle: Klucel (hydroxypropylcellulose) (HPC) 111 % of control | dose: 100.0 mg/kg/injection, schedule: Q01DX009 (ip), vehicle: Klucel (hydroxypropylcellulose) (HPC) 105 % of control | dose: 200.0 mg/kg/injection, schedule: Q01DX009 (ip), vehicle: Klucel (hydroxypropylcellulose) (HPC) 111 % of control

CCCCOB(/C=C/Sc1ccccc1)OCCCC
inactive: dose: 100.0 mg/kg/injection, schedule: Q01DX009 (ip), vehicle: saline sonified 89 % of control | dose: 100.0 mg/kg/injection, schedule: Q04DX003 (ip), vehicle: saline sonified 101 % of control | dose: 200.0 mg/kg/injection, schedule: Q01DX009 (ip), vehicle: saline sonified 87 % of control | dose: 200.0 mg/kg/injection, schedule: Q04DX003 (ip), vehicle: saline sonified 103 % of control | dose: 400.0 mg/kg/injection, schedule: Q01DX009 (ip), vehicle: saline sonified 100 % of control | dose: 400.0 mg/kg/injection, schedule: Q04DX003 (ip), vehicle: saline sonified 95 % of control

N#CC1C=Cc2ccccc2N1C(=O)Oc1ccccc1 (stereo unspecified)
inactive: dose: 100.0 mg/kg/injection, schedule: Q04DX003 (ip), vehicle: saline 104 % of control | dose: 200.0 mg/kg/injection, schedule: Q04DX003 (ip), vehicle: saline 93 % of control | dose: 400.0 mg/kg/injection, schedule: Q04DX003 (ip), vehicle: saline 94 % of control
